Test [1] relates to S. aureus clinical isolates. Put plainly: Photoacoustic flow cytometry (PAFC) detections of clinical isolates incubated with oxacillin. Type of test: cell-based, Staphylococcus aureus. The settings on record: for Treated Detections: oxacillin 1 μmg/ml, 2 hours. The method, then:
In a representative study, total of thirteen samples were tested for the mecA gene using PCR, thus determining their methicillin resistance before photoacoustic testing. Streaks of each S. aureus strain were grown on mannitol salt agar plates. Single colonies from each streak plate were used to regrow strains in mannitol salt broth for 2 hours in a shaking water bath at 36.5 C. That period ensured cells were growing and entering exponential growth phase. Oxacillin was added at a final concentration of 1 μmg/ml to half of each culture and grown for an additional 2 hours. Before processing through PAFC system, 100 μl from each culture was removed and used for growth analysis in an HI plate reader (available from Biotek of Winooski, Vermont). Growth curves were made for each culture by taking the optical density of each treated and untreated culture every minute over a 16-hour period. As described above, it was determined that two hours of antibiotic treatment was sufficient to determine differential growth rates from prior experimentation. Prior to performing photoacoustic testing, treated and untreated samples were incubated side-by-side for two hours. Photoacoustic testing of treated and untreated samples for each isolate were alternated, so that both samples were tested within twenty minutes to allow for similar growth times. Thus, total bacteria number could be compared properly.
To interpret the photoacoustic data provided by the flow cytometer, k-means clustering was used to guide the differentiation between methicillin resistant and susceptible samples. […] K-means, like other clustering methods, takes data points in a space of one or more dimensions and determines natural groupings of those points by proximity. Given a number of clusters, k, the algorithm separates all points into that number of groups. In a representative study, there was an interest in identifying only resistant and susceptible groups. Thus, k=2 was chosen.
The ratio of treated detection numbers over untreated numbers was determined, resulting in 13 numbers which were approximately in the range of 0 to 1. Lower numbers indicate that oxacillin was effective in decreasing the S. aureus population. However, there was no ad hoc threshold for determining antibiotic resistance. K-means with two clusters was applied to the data set using the MATLAB programming language (available from Math Works of Natick, Massachusetts). The MATLAB function, kmeans, uses Lloyd's algorithm. For simplicity, Euclidean distance was used for measuring and establishing iterative clusters.
Because the sample size was relatively small and the distribution was not obviously Gaussian, a nonparametric test was performed to compare the means of the bacterial counts before and after treatment with oxacillin. Using a Wilcoxon matched pairs signed rank test, a p-value of 0.0007 was calculated.
Photoacoustic Flow Cytometry. A 1000 μm optical fiber with numerical aperture of 0.39 (Thorlabs, Newton, New Jersey) was used to deliver laser light at 532 nm with a 5 ns pulse duration from a Nd:YAG laser (Litron Nano, Boseman, Montana). Laser beam energy was maintained and measured between 1.9 and 2.1/mJ for all PAFC experiments. The optical fiber was placed 5 mm away from a quartz tube (Quartz 10 QZ, Charles Supper, Natick, Massachusetts) with 10 μm thick walls. Samples were pumped through the quartz tube inside a 3D printed flow chamber. The laser beam was assumed Gaussian in shape and fluence was calculated to be 0.014 mJ/cm^2 and detection volume was determined to be 0.04 μL.

A further test deals with MRSA. The settings on record: cited from earlier work.
The subject of test [2] is Staph. aureus clinical isolates. Put plainly: Growth curves (optical density) of clinical isolates in presence of daptomycin. It is filed as cell-based. As to the method: Growth curves of multiple clinical isolates of the representative bacteria S. aureus as illustrated in FIGS. 4A through 4D were determined using a BioTek Synergy HI plate reader (available from BioTek Instruments (of Agilent Technologies), Winooski, Vermont). S. aureus isolates growth rates were tested in the presence and absence of the representative antibiotic daptomycin. Differential growth rates were identifiable after two hours of the sixteen-hour growth curve. Two-hour differentiation was confirmed by Newton-Raphson root finding method.
(§1) Sample preparation. Clinical isolates of Staph. aureus were obtained from the Urisch laboratory at the UPMC Department of Othopaedic Surgery. Isolates were de-identified according to IRB protocol and were stored in 50% glycerol solution at −80° C. Isolates were streaked for single colonies on mannitol salt agar (MSA) plates and cultures were grown in mannitol salt broth, shaking at 36.5° C. Overnight cultures were then diluted into fresh media and regrown for 2 hours to ensure that bacteria were entering exponential growth phase. Exponentially growing cultures were mixed with media or daptomycin in a 1:1 ratio. Daptomycin was added to 0.5 ml of culture to a final concentration of 0.25 μg/ml. Identical cultures were used in all experiments using PAFC and BioTek HI plate reader. For photoacoustic testing, bacteriophage SP1 was added to a concentration of 1000 phage per bacterial cell. Growth curves were performed for 16 hours with measurements taken once every minute.
Treated and control cultures were placed in a round bottom 96 well culture plate (Falcon microtest 96 well plate 35077, ThermoFisher, Waltham, Massachusetts) and were placed into the BioTek HI plate reader. Optical density (OD) measurements were taken every minute at 600 nm wavelength. Between measurements, the plate was shaken at 100 rpm and maintained at 36.5+C allowing for bacterial growth. The two-hour time point was determined to be sufficient to differentiate the growth rates. Additionally, multiple replicates of each bacterial strain were grown at 36.5° C. in the BioTek HI plate reader and 100 μL was removed and plated on MSA plates every 10 minutes. Growth curves were made directly from these titers for each strain to give a quantifiable number of bacterial cells for each OD.

In another test the test system is VRSA. The settings on record: cited from earlier work.
Test [3] relates to Staph. aureus clinical isolates. Put plainly: PAFC cell count of clinical isolates in presence of daptomycin, dyed SP1 phage label. Type of test: cell-based. As to the method: All strains were tested in the presence and absence of daptomycin. In a number of studies hereof, cultures were diluted into fresh media and regrown for 2 hours in the presence and absence of […] of daptomycin. Each sample was then incubated at room temperature for 10 minutes with multiple dyed phage per bacterial cell. Incubated samples were then processed through PAFC system 100 and number of detected cells recorded. Isolates were tested in triplicated for both the plate reader and PAFC system.
as §1
Photoacoustic Flow Cytometry. […] Laser beam energy was maintained and measured between 1.9 and 2.1/mJ for all PAFC experiments. […] The laser beam was assumed Gaussian in shape and fluence was calculated to be 0.014 mJ/cm^2 and detection volume was determined to be 0.04 μL.
All strains were tested in the presence and absence of daptomycin. […] Incubated samples were then processed through the PAFC system and number of detected cells recorded. Isolates were tested in triplicate for both the plate reader and PAFC system.

Molecules are shown by their SMILES.

This is an account of results in US20250002969A1, “DISCRIMINATION OF ANTIBIOTIC RESISTANT AND SENSITIVE SAMPLES” (priority 2021, published 2025).

For orientation: MIC means the smallest concentration in the dilution series that meets the test's criterion for growth inhibition.

Take `Cc1onc(-c2ccccc2)c1C(=O)N[C@@H]1C(=O)N2[C@@H]1SC(C)(C)[C@@H]2C(=O)O` [oxacillin]: the “Treated Detections” value in test [1] (isolate B1899 (mecA Yes)) was 404; in test [1] (isolate K3237 (mecA No)) it was 44; in test [1] (isolate K3251 (mecA No)), 7; in test [1] (isolate K3255 (mecA No)), 53; in test [1] (isolate K3261 (mecA Yes)) it was 135; in test [1] (isolate K3262 (mecA No)) it was 10. The “Treated Detections” value in test [1] (isolate K3266 (mecA No)) is reported as 18; in test [1] (isolate K3268 (mecA Yes)) it was 110; in test [1] (isolate K3270 (mecA Yes)), 134; in test [1] (isolate K3279 (mecA Yes)) it was 175; in test [1] (isolate K3280 (mecA Yes)), 179; in test [1] (isolate K3282 (mecA Yes)), 689. The “Treated Detections” value in test [1] (isolate K3287 (mecA No)) is reported as 2. In addition, the “mean ratio of treated to untreated” value in test [1] (second subgroup, markedly different growth) is 0.10; in test [1] (subgroup with similar growth rates (isolates with mecA gene)), 0.87.

With `CCCCCCCCCC(=O)N[C@@H](Cc1c[nH]c2ccccc12)C(=O)N[C@H](CC(N)=O)C(=O)N[C@@H](CC(=O)O)C(=O)N[C@@H]1C(=O)NCC(=O)N[C@@H](CCCN)C(=O)N[C@@H](CC(=O)O)C(=O)N[C@H](C)C(=O)N[C@@H](CC(=O)O)C(=O)NCC(=O)N[C@H](CO)C(=O)N[C@@H]([C@H](C)CC(=O)O)C(=O)N[C@@H](CC(=O)c2ccccc2N)C(=O)O[C@@H]1C` [daptomycin], the minimum inhibitory concentration (MIC) with MRSA was 0.25 to 1 µg/mL; in the test on VRSA, over 4 µg/mL. Besides, the “growth (optical density) treated vs untreated” value in test [2] (heterogeneous strain A, FIG. 4C) was “delay of exponential growth”; in test [2] (heterogeneous strain B, FIG. 4D), “no delay in initial growth is observed but severe retardation of growth starting at 1.5 hours”; in test [2] (resistant clinical isolate, FIG. 4B, 2 h and 16 h) it was “no delay or inhibition of growth”; in test [2] (susceptible clinical isolate, FIG. 4A, 2 h and 16 h) it was “complete inhibition of growth”. The “cells detected by PAFC, treated vs untreated” value in test [3] (heterogeneous resistant strains) is on record as “intermediary number of cells detected”; in test [3] (homogeneous resistant strains), “identical or nearly identical numbers of cells”. In addition, the “cell count via photoacoustic detection” value in test [3] (susceptible clinical isolate, FIG. 4A, two-hour timepoint) was “zero detection”.
